Results reported in patent publication US12018023B2 (NERVIANO MEDICAL SCIENCES S.R.L., priority 2018, dated 2024).

Key:
[1] = biological target: T1, IDH1^R132C (Homo sapiens, UniProt O75874, R132C); test: NADPH depletion assay, IDH1 R132C; format: biochemical
T1 construct: purchased not specified
Outline: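 IDH1 R132C (2 nM) preincubated 15 min at RT with compound in Tris-HCl pH 7.6/MgCl2 buffer, then 60 min RT with NADPH and 0.14 mM alpha-ketoglutarate. Remaining NADPH read by diaphorase/resazurin fluorescence (Ex544/Em590).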

[2] = test system: HT-1080 (IDH1^R132C); test: Cellular 2-HG production assay, HT-1080; format: cell-based; details: Homo sapiens, HT-1080, 72 h, inhibition of 2HG production, 72 hr incubation, LC-MS/MS; read-out: HT1080 2-HG IC50
Description: Cell lines HT-1080 (commercially available) and U87-MG-IDH1^R132H (obtained in analoy to the procedure reported in J. Mol. Neurosci 2013, 50, 165-71) are maintained in E-MEM 10% FCS and incubated at 37° C. in a humidified 5% CO2 atmosphere. Stably transfected U87-MG cell lines are also supplemented with 500 μg/mL G418.
Cells are seeded into 96 well black flat bottom plates at a density of 500 cells/well in 100 μL complete medium. After 24 hr the medium is replaced with 200 uL of fresh medium and compounds (dissolved into DMSO) are administrated to the cells using D300E Digital Dispenser (Tecan).
After 72 hr of incubation 100 uL from each well are collected and used for 2HG (R(−)-2-hydroxyglutarate) quantification.
Levels of 2-HG in cell culture media are determined by LC-MS/MS. Cell supernatants (100 μL/well) are treated with 1 M aqueous trichloroacetic acid containing 130 μM of the internal standard 2-HG-d3 (20 μL/well) in a 96-well plate.
The plates are sealed, mildly vortexed for 60 minutes, centrifuged at 4,000 RPM for 15 minutes, placed in a refrigerated autosampler taking care not to shake them, and aliquots of the upper part of the samples are directly injected in the chromatographic system. Calibration standards are obtained by ten fold dilution of aqueous 2-HG stock solutions with blank cell culture medium and denatured exactly in the same way as described above for samples. Samples and standards are assayed for 2-HG by reversed phase chromatography on a C18 column eluted with aqueous 0.15% formic acid and briefly washed with 90% methanol at the end of the run. 2-HG is determined by negative ion electrospray ionization with the internal standard method on a triple quadrupole mass spectrometer monitoring the MRM transitions 147>129 (2-HG) and 150>132 (2-HG-d3). 2-HG inhibition was calculated by comparing treated versus control data using Assay Explore (Symyx) software, with IC50 determined using a sigmoidal fitting algorithm.

[3] = biological target: T2, IDH1^R132H homodimer enzyme (Homo sapiens, UniProt O75874, R132H); test: NADPH depletion assay, IDH1 R132H; format: biochemical
T2 construct: purchased not specified
T2 sequence (O75874 whole entry R132H): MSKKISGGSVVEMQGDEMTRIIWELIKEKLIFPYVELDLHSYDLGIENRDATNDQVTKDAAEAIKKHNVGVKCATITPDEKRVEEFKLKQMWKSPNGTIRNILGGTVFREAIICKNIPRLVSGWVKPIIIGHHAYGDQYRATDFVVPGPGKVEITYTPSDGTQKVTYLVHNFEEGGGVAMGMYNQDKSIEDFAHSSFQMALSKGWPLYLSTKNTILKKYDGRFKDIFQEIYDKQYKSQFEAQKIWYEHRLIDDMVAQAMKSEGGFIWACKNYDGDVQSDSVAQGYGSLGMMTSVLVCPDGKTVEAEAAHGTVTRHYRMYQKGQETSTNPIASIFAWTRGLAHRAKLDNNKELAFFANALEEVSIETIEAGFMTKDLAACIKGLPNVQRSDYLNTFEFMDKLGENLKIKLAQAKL
Outline: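 IDH1 R132H enzyme (8 nM as diluted) in Tris-HCl pH 7.6 with 10 mM MgCl2, 0.001% Triton X-100 and 4 mM β-mercaptoethanol is preincubated 15 min at RT with compound. Substrate mix (12 uM NADPH, 3.4 mM α-ketoglutarate) is added for 60 min; remaining NAD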

[4] = biological target: T3, IDH2^R172K (Homo sapiens, UniProt P48735, R172K); test: NADPH depletion assay, IDH2 R172K; format: biochemical
T3 construct: purchased not specified
T3 sequence (P48735 40-452 R172K): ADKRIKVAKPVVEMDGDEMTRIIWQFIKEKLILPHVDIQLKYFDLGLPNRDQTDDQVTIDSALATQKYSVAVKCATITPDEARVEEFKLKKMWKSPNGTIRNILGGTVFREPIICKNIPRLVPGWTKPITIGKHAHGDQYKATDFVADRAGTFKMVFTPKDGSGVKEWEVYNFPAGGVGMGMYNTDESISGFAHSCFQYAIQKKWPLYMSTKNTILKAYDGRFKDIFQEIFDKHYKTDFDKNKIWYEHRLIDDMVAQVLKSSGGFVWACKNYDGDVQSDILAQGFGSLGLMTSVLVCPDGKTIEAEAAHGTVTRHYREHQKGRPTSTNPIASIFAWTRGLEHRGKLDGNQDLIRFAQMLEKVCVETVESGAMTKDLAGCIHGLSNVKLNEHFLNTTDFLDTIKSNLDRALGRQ
Description: IDH mutated enzyme activity converting alpha-ketoglutarate to 2-hydroxyglutaric acid is measured using a NADPH depletion assay. In the assay the remaining cofactor is measured at the end of the reaction with the addition of a catalytic excess of diaphorase and resazurin, to generate a fluorescent signal in proportion to the amount of NADPH remaining. IDH1 WT enzyme as well as mutated isoforms IDH1^R132H, IDH1^R132C, and IDH^2R172K enzymes are commercially available proteins (see e.g. Sino Biological, Abcam, Active Motif or Creative BioMart).
IDH1^R132H homodimer enzyme are diluted to 8 nM, in 10 μL of Assay Buffer (150 mM NaCl, 50 mM Tris-HCl pH 7.6, 10 mM MgCl2, 0.001% Triton X-100, 4 mM β-mercaptoethanol); 0.2 uL of test compound, previously serially diluted 1 to 3, >10 experimental points from 1 mM in DMSO, is added and the mixture is incubated for 15 minutes at room temperature. The reaction is started with the addition of 10 μL of Substrate Mix (12 uM NADPH, 3.4 mM alpha-ketoglutarate in Assay Buffer) and the mixture is incubated for 60 minutes at room temperature. The reaction is terminated with the addition of 5 μl of Detection Buffer (100 μg/mL diaphorase, 30 μM resazurin, in IX Assay Buffer), and is incubated for 15 minute before reading on a ViewLux as platereader at Ex544/Em590.
Compounds are assayed for their activity against IDH2^R172K following the same assay as above with the following modifications: IDH2^R172K and alpha-ketoglutarate final concentrations in the Assay Buffer is 16 nM and 0.55 mM, respectively.

T1 sequence (O75874 whole entry R132C): as the sequence (O75874 whole entry R132H) above, with H132C counted along it

C=CC(=O)N1CCN(C(CC)c2ccc([C@H](C)Nc3ncc4ccc(=O)n(C5CC5)c4n3)cc2)CC1 (stereo partly drawn) [cpd 218, 2-{[(1S)-1-{4-[1-(4-acryloylpiperazin-1-yl)propyl]phenyl}ethyl]amino}-8-cyclopropylpyrido[2,3-d]pyrimidin-7(8H)-one] gave an IC50 [1] of 13 nM and an IC50 [2] of 2.1 nM.

C#Cc1ccc(Cn2c(=O)ccc3cnc(N[C@@H](C)c4ccc(CN5CCN(C(=O)C=C)CC5)cc4)nc32)c(F)c1 [cpd 217, 2-{[(1S)-1-{4-[(4-acryloylpiperazin-1-yl)methyl]phenyl}ethyl]amino}-8-(4-ethynyl-2-fluorobenzyl)pyrido[2,3-d]pyrimidin-7(8H)-one] was tested, and the IC50 [1] was 15 nM and the IC50 [2] was 8.2 nM.

C/C=C/C(=O)N1CCN(C(CC)c2ccc([C@H](C)Nc3ncc4ccc(=O)n(C(C)C)c4n3)cc2)CC1 (stereo partly drawn) [cpd 222, 2-({(1S)-1-[4-(1-{4-[(2E)-but-2-enoyl]piperazin-1-yl}propyl)phenyl]ethyl}amino)-8-(propan-2-yl)pyrido[2,3-d]pyrimidin-7(8H)-one] gave an IC50 [1] of 147 nM and an IC50 [2] of 168 nM.

With C=CC(=O)N1CCN(Cc2ccc([C@H](C)Nc3ncc4ccc(=O)n(CC)c4n3)cc2)[C@H](C(C)C)C1 [cpd 209, 2-{[(1S)-1-(4-{[(2R)-4-acryloyl-2-(propan-2-yl)piperazin-1-yl]methyl}phenyl)ethyl]amino}-8-ethylpyrido[2,3-d]pyrimidin-7(8H)-one] the IC50 [1] was 46 nM and the IC50 [2] was 30.2 nM.

C=C(C)C(=O)N1CCN(C(CC)c2ccc([C@H](C)Nc3ncc4ccc(=O)n(C(C)C)c4n3)cc2)CC1 (stereo partly drawn) [cpd 221, 2-{[(1S)-1-(4-{1-[4-(2-methylacryloyl)piperazin-1-yl]propyl}phenyl)ethyl]amino}-8-(propan-2-yl)pyrido[2,3-d]pyrimidin-7(8H)-one] was tested, and the IC50 [1] was 68 nM and the IC50 [2] was 142 nM.

In the case of C=CC(=O)N1CCN(C(CC)c2ccc([C@H](C)Nc3ncc4ccc(=O)n(Cc5c(F)cccc5F)c4n3)cc2)CC1 (stereo partly drawn) [cpd 216, 2-{[(1S)-1-{4-[1-(4-acryloylpiperazin-1-yl)propyl]phenyl}ethyl]amino}-8-(2,6-difluorobenzyl)pyrido[2,3-d]pyrimidin-7(8H)-one], the IC50 [1] is reported as 1 nM and the IC50 [2] is reported as 1.1 nM.

C=CC(=O)N1CCN([C@@H](CC2CC2)c2ccc([C@H](C)Nc3cc4c(ccc(=O)n4C(C)C)cn3)cc2)CC1 [cpd 251, 7-{[(1S)-1-{4-[(1S)-1-(4-acryloylpiperazin-1-yl)-2-cyclopropylethyl]phenyl}ethyl]amino}-1-(propan-2-yl)-1,6-naphthyridin-2(1H)-one] gave an IC50 [1] of 2 nM and an IC50 [2] of 2.3 nM.

For C=CC(=O)N1CC[C@H](Oc2ccc([C@H](C)Nc3ncc4ccc(=O)n(CC)c4n3)cc2)C1 [cpd 224], the IC50 [1] was 1700 nM and the IC50 [2] was 1070 nM.

CC[C@H](c1ccc([C@H](C)Nc2ncc3ccc(=O)n(C(C)C)c3n2)cc1)N1CCN(C(=O)CCO)CC1 [cpd 243] was tested, and the IC50 [1] was 20 nM and the IC50 [2] was 38 nM.

C=CC(=O)N1CCN(C(=O)c2ccc([C@H](C)Nc3ncc4ccc(=O)n(CC)c4n3)cc2)CC1 [cpd 190, 2-{[(1S)-1-{4-[(4-acryloylpiperazin-1-yl)carbonyl]phenyl}ethyl]amino}-8-ethylpyrido[2,3-d]pyrimidin-7(8H)-one] was tested, and the IC50 [3] was 1940 nM, the IC50 [1] was 3600 nM and the IC50 [4] was 679 nM.

In the case of C[C@H](Nc1ncc2ccc(=O)n(Cc3ccc(C#N)cc3)c2n1)c1ccc(Cl)cc1 [cpd 27, 4-{[2-{[(1S)-1-(4-chlorophenyl)ethyl]amino}-7-oxopyrido[2,3-d]pyrimidin-8(7H)-yl]methyl}benzonitrile], the IC50 [3] is reported as 1070 nM, the IC50 [1] is reported as 336 nM and the IC50 [4] is reported as 2600 nM.

Molecule CCCn1c(=O)ccc2cnc(N[C@@H](C)c3ccc(CN4CCC(F)(F)CC4)cc3)nc21 [cpd 101, 2-{[(1S)-1-{4-[(4,4-difluoropiperidin-1-yl)methyl]phenyl}ethyl]amino}-8-propylpyrido[2,3-d]pyrimidin-7(8H)-one] has an IC50 [3] of 575 nM, an IC50 [1] of 271 nM and an IC50 [4] of 2670 nM.

With C=CC(=O)N1CCN(c2ccc([C@H](C)Nc3ncc4ccc(=O)n([C@@H](C)C(C)C)c4n3)cc2F)CC1 [cpd 179, 2-({(1S)-1-[4-(4-acryloylpiperazin-1-yl)-3-fluorophenyl]ethyl}amino)-8-[(2S)-3-methylbutan-2-yl]pyrido[2,3-d]pyrimidin-7(8H)-one] the IC50 [3] was 123 nM, the IC50 [1] was 63 nM and the IC50 [4] was 2350 nM.

Work on C[C@H](Nc1ncc2ccc(=O)n(CC(C)(C)C)c2n1)c1ccc(Br)cc1 [cpd 34, 2-{[(1S)-1-(4-bromophenyl)ethyl]amino}-8-(2,2-dimethylpropyl)pyrido[2,3-d]pyrimidin-7(8H)-one] yielded an IC50 [3] of 219 nM, an IC50 [1] of 135 nM and an IC50 [4] of 3350 nM.

Molecule COC(=O)c1ccc([C@H](C)Nc2ncc3ccc(=O)n(Cc4ccc(F)cc4)c3n2)cc1 [cpd 6, methyl 4-[(1S)-1-{[8-(4-fluorobenzyl)-7-oxo-pyrido[2,3-d]pyrimidin-2-yl]amino}ethyl]benzoate] has an IC50 [3] of 3340 nM, an IC50 [1] of 1340 nM and an IC50 [4] of 6650 nM.

CC(C)[C@H](C)n1c(=O)ccc2cnc(N[C@@H](C)c3ccc(OC4CCN(C(=O)OCc5ccccc5)CC4)cc3)nc21 [cpd 146, 4-(4-{(S)-1-[8-((S)-1,2-Dimethyl-propyl)-7-oxo-7,8-dihydro-pyrido[2,3-d]pyrimidin-2-ylamino]-ethyl}-phenoxy)-piperidine-1-carboxylic acid benzyl ester] showed an IC50 [3] of 59 nM, an IC50 [1] of 16 nM and an IC50 [4] of 1420 nM.

Molecule CC(C)[C@H](C)n1c(=O)ccc2cnc(N[C@@H](C)c3ccc(-c4ccccc4C#N)cc3)nc21 [cpd 165, 4′-[(1S)-1-({8-[(2S)-3-methylbutan-2-yl]-7-oxo-7,8-dihydropyrido[2,3-d]pyrimidin-2-yl}amino)ethyl]biphenyl-2-carbonitrile] has an IC50 [3] of 157 nM, an IC50 [1] of 85 nM and an IC50 [4] of 5660 nM.

C[C@H](Nc1cc2c(ccc(=O)n2CC(C)(C)C)cn1)c1ccc(CN2CCCC(F)(F)C2)cc1 [cpd 235, 7-{(S)-1-[4-(3,3-Difluoro-piperidin-1-ylmethyl)-phenyl]-ethylamino}-1-(2,2-dimethyl-propyl)-1H-[1,6]naphthyridin-2-one] gave an IC50 [3] of 128 nM, an IC50 [1] of 48 nM and an IC50 [4] of 5110 nM.
